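Tested at 5 concentrations; 48 h exposure; 96-well plates; endpoints linearly interpolated, else capped at highest concentration. The concentration for full growth arrest is given as TGI.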
What was measured:
Assay in all cases: NCI tumour cell line growth inhibition, 48 h
RPMI-8226 leukemia = tested on: RPMI-8226 leukemia
DMS 273 small cell lung = tested on: DMS 273 small cell lung
CCRF-CEM leukemia = tested on: CCRF-CEM leukemia
IGROV1 ovarian = tested on: IGROV1 ovarian
U251 CNS = tested on: U251 CNS
NCI-H226 lung = tested on: NCI-H226 lung
SNB-75 CNS = tested on: SNB-75 CNS
HCT-15 colon = tested on: HCT-15 colon
EKVX NSCLC = tested on: EKVX NSCLC
P388/ADR leukemia = tested on: P388/ADR leukemia
SF-268 CNS = tested on: SF-268 CNS
M19-MEL melanoma = tested on: M19-MEL melanoma
COLO 205 colon = tested on: COLO 205 colon
SK-MEL-28 melanoma = tested on: SK-MEL-28 melanoma
HOP-62 NSCLC = tested on: HOP-62 NSCLC
OVCAR-4 ovarian = tested on: OVCAR-4 ovarian
P388 leukemia = tested on: P388 leukemia
DMS 114 small cell lung = tested on: DMS 114 small cell lung
A549 NSCLC = tested on: A549 NSCLC
RXF 393 renal = tested on: RXF 393 renal
HT29 colon = tested on: HT29 colon
HOP-92 NSCLC = tested on: HOP-92 NSCLC
SK-OV-3 ovarian = tested on: SK-OV-3 ovarian
HOP-18 NSCLC = tested on: HOP-18 NSCLC
KM20L2 colon = tested on: KM20L2 colon
MOLT-4 leukemia = tested on: MOLT-4 leukemia
DLD-1 colon = tested on: DLD-1 colon
MCF7 breast = tested on: MCF7 breast
K-562 leukemia = tested on: K-562 leukemia
SF-539 CNS = tested on: SF-539 CNS
LOX IMVI melanoma = tested on: LOX IMVI melanoma
NCI-H23 lung = tested on: NCI-H23 lung
SK-MEL-5 melanoma = tested on: SK-MEL-5 melanoma
A498 renal = tested on: A498 renal
NCI/ADR-RES ovarian = tested on: NCI/ADR-RES ovarian
OVCAR-8 ovarian = tested on: OVCAR-8 ovarian
SN12C renal = tested on: SN12C renal
UACC-257 melanoma = tested on: UACC-257 melanoma
OVCAR-3 ovarian = tested on: OVCAR-3 ovarian
NCI-H522 lung = tested on: NCI-H522 lung
UACC-62 melanoma = tested on: UACC-62 melanoma
HCT-116 colon = tested on: HCT-116 colon
SN12K1 renal = tested on: SN12K1 renal
HCC-2998 colon = tested on: HCC-2998 colon
SF-295 CNS = tested on: SF-295 CNS
NCI-H460 lung = tested on: NCI-H460 lung
HL-60(TB) leukemia = tested on: HL-60(TB) leukemia
MALME-3M melanoma = tested on: MALME-3M melanoma
UO-31 renal = tested on: UO-31 renal
XF 498 CNS = tested on: XF 498 CNS
SW-620 colon = tested on: SW-620 colon
SNB-78 CNS = tested on: SNB-78 CNS
OVCAR-5 ovarian = tested on: OVCAR-5 ovarian
KM12 colon = tested on: KM12 colon
SK-MEL-2 melanoma = tested on: SK-MEL-2 melanoma

Compound: CN(C)CCNCc1c2ccccc2c(CNCCN(C)C)c2ccccc12
- TGI (RPMI-8226 leukemia): > 100 µM
- TGI (DMS 273 small cell lung): > 100 µM
- TGI (CCRF-CEM leukemia): 88.8 µM
- TGI (IGROV1 ovarian): > 69.4 µM
- TGI (U251 CNS): 56.9 µM
- TGI (NCI-H226 lung): 47 µM
- TGI (SNB-75 CNS): > 100 µM
- TGI (HCT-15 colon): > 100 µM
- TGI (EKVX NSCLC): > 100 µM
- TGI (P388/ADR leukemia): > 100 µM
- TGI (SF-268 CNS): > 90.5 µM
- TGI (M19-MEL melanoma): > 57.1 µM
- TGI (COLO 205 colon): 22.3 µM
- TGI (SK-MEL-28 melanoma): > 100 µM
- TGI (HOP-62 NSCLC): 75.5 µM
- TGI (OVCAR-4 ovarian): 72 µM
- TGI (P388 leukemia): > 56.2 µM
- TGI (DMS 114 small cell lung): > 70.1 µM
- TGI (A549 NSCLC): > 59.9 µM
- TGI (RXF 393 renal): 62.7 µM
- TGI (HT29 colon): 40.6 µM
- TGI (HOP-92 NSCLC): 47.3 µM
- TGI (SK-OV-3 ovarian): 42.5 µM
- TGI (HOP-18 NSCLC): > 100 µM
- TGI (KM20L2 colon): 26 µM
- TGI (MOLT-4 leukemia): 8.31 µM
- TGI (DLD-1 colon): > 100 µM
- TGI (MCF7 breast): 79.8 µM
- TGI (K-562 leukemia): > 100 µM
- TGI (SF-539 CNS): > 73.6 µM
- TGI (LOX IMVI melanoma): 38.7 µM
- TGI (NCI-H23 lung): > 100 µM
- TGI (SK-MEL-5 melanoma): 17.9 µM
- TGI (A498 renal): 55.9 µM
- TGI (NCI/ADR-RES ovarian): > 100 µM
- TGI (OVCAR-8 ovarian): > 100 µM
- TGI (SN12C renal): > 100 µM
- TGI (UACC-257 melanoma): 32.5 µM
- TGI (OVCAR-3 ovarian): > 100 µM
- TGI (NCI-H522 lung): > 100 µM
- TGI (UACC-62 melanoma): > 61.6 µM
- TGI (HCT-116 colon): > 90.1 µM
- TGI (SN12K1 renal): 67.6 µM
- TGI (HCC-2998 colon): 23.8 µM
- TGI (SF-295 CNS): > 100 µM
- TGI (NCI-H460 lung): > 100 µM
- TGI (HL-60(TB) leukemia): 46.8 µM
- TGI (MALME-3M melanoma): 35.4 µM
- TGI (UO-31 renal): > 100 µM
- TGI (XF 498 CNS): > 100 µM
- TGI (SW-620 colon): > 73.6 µM
- TGI (SNB-78 CNS): 98.4 µM
- TGI (OVCAR-5 ovarian): 43.5 µM
- TGI (KM12 colon): > 100 µM
- TGI (SK-MEL-2 melanoma): 57.5 µM
